# In patent US6737383B1, “Herbicidal oxadiazolidines” (priority 1999, dated 2004):
# Experiments:
# bedstraw = experiment: Test B pre/postemergence bedstraw; type: in vivo, Galium aparine
# Outline: (§1)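 Response is a visual 0-to-10 score relative to untreated plants, where 0 means no effect and 10 means complete control, taken twelve to sixteen days after application. Treatments went onto soil at planting and onto foliage of 1- to 4-leaf plants, using a surfactant-containing non-phytotoxic solvent.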
# blackgrass = experiment: Test B pre/postemergence blackgrass; type: in vivo, Alopecurus myosuroides
# Outline: as §1
# surinam grass = experiment: Test B pre/postemergence surinam grass; type: in vivo, Brachiaria decumbens
# Outline: as §1
# corn = experiment: Test B pre/postemergence corn; type: in vivo, Zea mays
# Outline: as §1
# crabgrass = experiment: Test B pre/postemergence crabgrass; type: in vivo, Digitaria sanguinalis
# Outline: as §1
# pigweed = experiment: Test B pre/postemergence pigweed; type: in vivo, Amaranthus retroflexus
# Outline: as §1
# rape = experiment: Test B pre/postemergence rape; type: in vivo, Brassica napus
# Outline: as §1
# soybean = experiment: Test B pre/postemergence soybean; type: in vivo, Glycine max
# Outline: as §1
# sugar beet = experiment: Test B pre/postemergence sugar beet; type: in vivo, Beta vulgaris
# Outline: as §1
# velvetleaf = experiment: Test B pre/postemergence velvetleaf; type: in vivo, Abutilon theophrasti
# Outline: as §1
# wheat = experiment: Test B pre/postemergence wheat; type: in vivo, Triticum aestivum
# Outline: as §1
# wild oat = experiment: Test B pre/postemergence wild oat; type: in vivo, Avena fatua
# Outline: as §1
# purple nutsedge = experiment: Test B pre/postemergence purple nutsedge; type: in vivo, Cyperus rotundus
# Outline: as §1
# rice = experiment: Test B flood test rice; type: in vivo, Oryza sativa
# Outline: (§2)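 Each value is a visual injury score relative to controls, with 10 meaning complete control and 0 no effect. Evaluation took place twelve to sixteen days after the 2-leaf-stage plants were treated and kept in the greenhouse.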
# smallflower flatsedge = experiment: Test B flood test smallflower flatsedge; type: in vivo, Cyperus difformis
# Outline: as §2
# duck salad = experiment: Test B flood test duck salad; type: in vivo, Heteranthera limosa
# Outline: as §2
# [1] = Postemergence, Rate 62 g/ha, scale 0 to 10, 0 is no effect, 10 is complete control
# [2] = Postemergence, Rate 250 g/ha, scale 0 to 10, 0 no effect, 10 complete control
# [3] = Preemergence, Rate 62 g/ha, scale 0 to 10, 0 is no effect, 10 is complete control
# [4] = Preemergence, Rate 125 g/ha, scale 0 to 10 (0 no effect, 10 complete control)
# [5] = Preemergence, Rate 250 g/ha, scale of 0 to 10 where 0 is no effect and 10 is complete control
# [6] = Preemergence, Rate 500 g/ha, scale 0 (no effect) to 10 (complete control)
# [7] = Rate 125 g/ha, Postemergence, scale 0 to 10, 0 no effect, 10 complete control
# [8] = Rate 500 g/ha, Postemergence, 0 to 10 scale (0 no effect, 10 complete control)
# [9] = Rate 125 g/ha, Postemergence section (flood test species), scale 0 to 10, 0 no effect, 10 complete control
# [10] = Rate 500 g/ha, Postemergence section of Table B, 0 to 10 scale (0 no effect, 10 complete control)
# [11] = flood test, listed under Postemergence, Rate 250 g/ha, scale 0 to 10, 0 no effect, 10 complete control
smiles,measurement,setting,value
CC(C)Oc1cc(-n2c(=O)on(C(=O)N(c3ccc(F)cc3)C(C)C)c2=O)c(Cl)cc1Cl [Compound 43],Bedstraw plant response rating,bedstraw; [1],0
same,Bedstraw plant response rating,bedstraw; [2],0
same,"Plant response rating, Bedstraw",bedstraw; [3],0
same,"Plant response rating, Bedstraw",bedstraw; [4],0
same,"Plant response rating, Bedstraw",bedstraw; [5],0
same,Bedstraw plant response rating,bedstraw; [6],2
same,Bedstraw plant response rating,bedstraw; [7],0
same,Bedstraw plant response rating,bedstraw; [8],2
same,Blackgrass plant response rating,blackgrass; [1],0
same,Blackgrass plant response rating,blackgrass; [2],0
same,"Plant response rating, Blackgrass",blackgrass; [3],0
same,"Plant response rating, Blackgrass",blackgrass; [4],0
same,"Plant response rating, Blackgrass",blackgrass; [5],0
same,Blackgrass plant response rating,blackgrass; [6],1
same,Blackgrass plant response rating,blackgrass; [7],0
same,Blackgrass plant response rating,blackgrass; [8],4
same,B. signalgrass plant response rating,surinam grass; [1],0
same,B. signalgrass plant response rating,surinam grass; [2],0
same,"Plant response rating, B. signalgrass",surinam grass; [3],0
same,"Plant response rating, B. signalgrass",surinam grass; [4],0
same,"Plant response rating, B. signalgrass",surinam grass; [5],0
same,B. signalgrass plant response rating,surinam grass; [6],0
same,B. signalgrass plant response rating,surinam grass; [7],0
same,B. signalgrass plant response rating,surinam grass; [8],0
same,Corn plant response rating,corn; [1],0
same,Corn plant response rating,corn; [2],0
same,"Plant response rating, Corn",corn; [3],0
same,"Plant response rating, Corn",corn; [4],0
same,"Plant response rating, Corn",corn; [5],0
same,Corn plant response rating,corn; [6],0
same,Corn plant response rating,corn; [7],0
same,Corn plant response rating,corn; [8],0
same,Crabgrass plant response rating,crabgrass; [1],1
same,Crabgrass plant response rating,crabgrass; [2],2
same,"Plant response rating, Crabgrass",crabgrass; [3],0
same,"Plant response rating, Crabgrass",crabgrass; [4],0
same,"Plant response rating, Crabgrass",crabgrass; [5],0
same,Crabgrass plant response rating,crabgrass; [6],0
same,Crabgrass plant response rating,crabgrass; [7],2
same,Crabgrass plant response rating,crabgrass; [8],2
same,Redroot pigweed plant response rating,pigweed; [1],1
same,"Plant response rating, Redroot pigweed",pigweed; [3],0
same,"Plant response rating, Redroot pigweed",pigweed; [4],0
same,"Plant response rating, Redroot pigweed",pigweed; [5],0
same,Redroot pigweed plant response rating,pigweed; [6],4
same,Redroot pigweed plant response rating,pigweed; [7],2
same,Redroot pigweed plant response rating,pigweed; [8],6
same,Rape plant response rating,rape; [1],0
same,Rape plant response rating,rape; [2],0
same,"Plant response rating, Rape",rape; [3],0
same,"Plant response rating, Rape",rape; [4],0
same,"Plant response rating, Rape",rape; [5],0
same,Rape plant response rating,rape; [6],0
same,Rape plant response rating,rape; [7],0
same,Soybean plant response rating,soybean; [1],2
same,Soybean plant response rating,soybean; [2],3
same,"Plant response rating, Soybean",soybean; [3],0
same,"Plant response rating, Soybean",soybean; [4],0
same,"Plant response rating, Soybean",soybean; [5],0
same,Soybean plant response rating,soybean; [6],0
same,Soybean plant response rating,soybean; [7],3
same,Sugarbeets plant response rating,sugar beet; [1],0
same,Sugarbeets plant response rating,sugar beet; [2],1
same,"Plant response rating, Sugarbeets",sugar beet; [3],0
same,"Plant response rating, Sugarbeets",sugar beet; [4],0
same,"Plant response rating, Sugarbeets",sugar beet; [5],0
same,Sugarbeets plant response rating,sugar beet; [6],0
same,Sugarbeets plant response rating,sugar beet; [7],1
same,Velvetleaf plant response rating,velvetleaf; [1],0
same,Velvetleaf plant response rating,velvetleaf; [2],0
same,"Plant response rating, Velvetleaf",velvetleaf; [3],0
same,"Plant response rating, Velvetleaf",velvetleaf; [4],0
same,"Plant response rating, Velvetleaf",velvetleaf; [5],0
same,Velvetleaf plant response rating,velvetleaf; [6],0
same,Velvetleaf plant response rating,velvetleaf; [7],0
same,Wheat plant response rating,wheat; [1],0
same,Wheat plant response rating,wheat; [2],0
same,"Plant response rating, Wheat",wheat; [3],0
same,"Plant response rating, Wheat",wheat; [4],0
same,"Plant response rating, Wheat",wheat; [5],0
same,Wheat plant response rating,wheat; [6],0
same,Wheat plant response rating,wheat; [7],0
same,Wild oats plant response rating,wild oat; [1],0
same,Wild oats plant response rating,wild oat; [2],0
same,"Plant response rating, Wild oats",wild oat; [4],0
same,"Plant response rating, Wild oats",wild oat; [5],0
same,Wild oats plant response rating,wild oat; [6],0
same,Wild oats plant response rating,wild oat; [7],0
same,Nutsedge plant response rating,purple nutsedge; [1],0
same,Nutsedge plant response rating,purple nutsedge; [2],0
same,"Plant response rating, Nutsedge",purple nutsedge; [3],0
same,"Plant response rating, Nutsedge",purple nutsedge; [4],0
same,"Plant response rating, Nutsedge",purple nutsedge; [5],0
same,Nutsedge plant response rating,purple nutsedge; [6],0
same,Nutsedge plant response rating,purple nutsedge; [7],0
same,Nutsedge plant response rating,purple nutsedge; [8],0
same,Rice plant response rating,rice; [1],0
same,Rice plant response rating,rice; [9],0
same,Rice plant response rating,rice; [10],0
same,Rice plant response rating,rice; [11],0
same,S. Flatsedge plant response rating,smallflower flatsedge; [1],0
same,S. Flatsedge plant response rating,smallflower flatsedge; [9],0
same,S. Flatsedge plant response rating,smallflower flatsedge; [11],0
same,Ducksalad plant response rating,duck salad; [1],0
same,Ducksalad plant response rating,duck salad; [9],0
same,Ducksalad plant response rating,duck salad; [10],0
same,Ducksalad plant response rating,duck salad; [11],0
